Laboratory results taken from US10118903B2, “Aminotriazole-based KDM1A inhibitors as epigenetic modulators” (MUSC FOUNDATION FOR RESEARCH DEVELOPMENT, priority 2014, dated 2018).

Assays:
[1] = target: T1, human recombinant LSD1 (Homo sapiens, UniProt O60341); test: LSD1 inhibitor screening assay (Cayman Chemical kit, fluorometric); format: biochemical; details: 10 μM compound
T1 construct: purchased Cayman Chemical Item #700120
Description: LSD1 Inhibitor Screening Assay:
In short, 10 μM of compound was combined with the fluorometic substrate 10-acetyl-3,7-dihydroxyphenoxazine, horseradish peroxidase, human recombinant LSD1, and 100 μM dimethylated lysine at residue 4 [ARTK(diMe)[…]] (Seq. ID No: 1) for 30 mins at 37° C. Plates were read using an excitation wavelength of 535 nm and an emission wavelength of 590 nm with a SpectraMax M5 Microplate reader.

[2] = Solubility noted in the LSD1 screen; format: physicochemical; details: LSD1 screen at 10 μM
[3] = system: mouse heart; test: Langendorff isolated heart model, ischemia/reperfusion; details: versus vehicle
Text: (§1) In the Langendorff preparation, the heart is removed with preservation of a portion of the afferent and efferent blood vessels; it is then perfused in a reverse fashion via the aorta, usually with a nutrient rich, oxygenated solution (e.g. Krebs-Henseleit solution or Tyrode's solution). The backwards pressure causes the aortic valve to shut, forcing the solution into the coronary vessels, which normally supply the heart tissue with blood. This feeds nutrients and oxygen to the cardiac muscle, allowing it to continue beating for several hours after its removal from the animal. This is a useful preparation because it allows the addition of drugs (via the perfusate) and observation of their effect on the heart without the complications involved with in vivo experimentation, such as neuronal and hormonal effects from living animal (Broadley, K. J., 1970). A pressure transducer is inserted to measure a number of cardiac performance parameters including left ventricular developed pressure, left ventricular end diastolic pressure, heart rate, etc. Following the Langendorff procedure, the myocardium is cut into cross sections, and infarcted tissue is identified by the inability to take up stain; thus infarcted areas appear white, while healthy areas appear red.
The compounds described herein may be used to protect the myocardium from injury following an ischemic event. In FIG. 6, a mouse heart was subjected to ischemia by ligation of the afferent vessel in a Langendorff preparation, as described above. Prior to the induction of ischemia, hearts were either pre-treated with vehicle, verlindamycin or C1. […] In FIG. 8, the results of an experiment to measure infarcted tissue in a myocardial cross-section are shown. Results are expressed as a percentage of the area of infarct with respect to total surface area. […] The HDAC1/CoREST/LSD1 complex was pulled down with an LSD1 antibody and a Western blot for CoREST was performed.

[4] = system: murine myocardium; test: Infarct area in myocardial cross-section after induced myocardial ischemia; format: in vivo, mouse; details: 10 mg/kg; versus vehicle
Text: as §1, with “Following the Langendorff procedure, the myocardium is cut into cross sections, and infarcted tissue is identified by the inability to take up stain; thus infarcted areas appear white, while healthy areas appear red.” left out
The compounds described herein may be used to protect the myocardium from injury following an ischemic event. […] Results are expressed as a percentage of the area of infarct with respect to total surface area. […]

[5] = system: LSD1:CoREST complex; test: Pull-down of HDAC1/CoREST/LSD1 complex with LSD1 antibody, Western blot for CoREST; format: cell-based; details: primary feline cardiomyocytes, 3 h, 1 μM; LSD1 antibody pull-down
Description: Co-immunoprecipitation analysis for LSD1:CoREST complex following treatment from primary rat cardiomyocytes with 5 μM and 1 μM C1 was performed as described above. Lysates pulled down with LSD1 antibody and western blotted for CoREST (n=2).

[6] = synthetic analogues of C1, Table 2

Molecule | inhibition at 10 µM [1, 6] [%] | inhibition at 10 µM ([1]; Chembridge analogues table) [%] | other results
Nc1nnc(NCc2ccccc2)[nH]1 [Compound 5e] | 41 ± 17.4 | – | –
Nc1n[nH]c(NCc2c(Cl)cccc2Oc2cccc3cc[nH]c23)n1 [Compound M5] | 67.6 ± 3.7 | – | –
COc1ccc(Cl)cc1CNc1nn[nH]n1 [Compound C13, N-(5-chloro-2-methoxybenzyl)-2H-tetrazol-5-amine] | – | 30.8 ± 5.7 | –
Cc1ccc(C(C)C)c(Oc2cccc(Cl)c2CNc2nnc(N)[nH]2)c1 [Compound 5c, N^3-(2-chloro-6-(2-isopropyl-5-methylphenoxy)benzyl)-4H-1,2,4-triazole-3,5-diamine] | 56.3 ± 3.2 | – | –
COc1ccc(Sc2cccc(Cl)c2CNc2nnc(N)[nH]2)cc1OC [Compound 5t, N^3-(2-chloro-6-((3,4-dimethoxyphenyl)thio)benzyl)-4H-1,2,4-triazole-3,5-diamine] | 53.2 ± 1.7 | – | –
CCOc1cc(C)ccc1Oc1ccccc1CNc1nc(N)n[nH]1 [Compound M10] | 73.8 ± 4.4 | – | –
Nc1nnc(NCc2c(Cl)cccc2Oc2ccc(Br)cc2Br)[nH]1 [Compound 5j] | – | – | solubility (reason why % inhibition was not determined) [2]: Not Determined (Insolube)
Clc1ccccc1CNc1nc[nH]n1 [Compound C6, N-(2-chlorobenzyl)-1H-1,2,4-triazol-3-amine] | – | 4.6 ± 6.9 | –
Nc1nnc(NCc2c(Cl)cccc2Oc2ccc(Br)cc2C(F)(F)F)[nH]1 [Compound 5k, N^3-(2-(4-bromo-2-(trifluoromethyl)phenoxy)-6-chlorobenzyl)-4H-1,2,4-triazole-3,5-diamine] | 67.8 ± 5.4 | – | –
CSc1ccc(Oc2cccc(Cl)c2CNc2nnc(N)[nH]2)cc1 [Compound 5l, N^3-(2-chloro-6-(4-((methyl)thio)phenoxy)benzyl)-4H-1,2,4-triazole-3,5-diamine] | – | – | solubility (reason why % inhibition was not determined) [2]: Not Determined (Insolube)
CCOc1ccc(Cl)cc1CNc1nn[nH]n1 [Compound C14, N-(5-chloro-2-ethoxybenzyl)-2H-tetrazol-5-amine] | – | 20.8 ± 5 | –
Nc1nnc(NCc2c(Cl)cccc2Oc2ccc3c(c2)OCO3)[nH]1 [Compound 5r, N^3-(2-(benzo[d][1,3]dioxol-5-yloxy)-6-chlorobenzyl)-4H-1,2,4-triazole-3,5-diamine] | 65.8 ± 6.4 | – | –
COc1cccc(Oc2cccc(Cl)c2CNc2nnc(N)[nH]2)c1 [Compound 5d, N^3-(2-chloro-6-(3-methoxyphenoxy)benzyl)-4H-1,2,4-triazole-3,5-diamine] | 44.6 ± 5.1 | – | –
Nc1n[nH]c(NCc2c(Cl)cccc2Oc2ccc(-c3ccccc3)cc2)n1 [Compound M3] | 66.8 ± 4.4 | – | –
COc1cccc(CNc2nn[nH]n2)c1OCc1ccccc1Cl [Compound C12, N-(2-((2-chlorobenzyl)oxy)-3-methoxybenzyl)-2H-tetrazol-5-amine] | – | 22.1 ± 7.3 | –
Clc1ccc(OCc2ccccc2)c(CNc2nn[nH]n2)c1 [Compound C11, N-(2-(benzyloxy)-5-chlorobenzyl)-2H-tetrazol-5-amine] | – | 19.9 ± 8.4 | –
COc1cc(Oc2ccccc2CNc2nc(N)n[nH]2)cc(OC)c1OC [Compound M8] | 56 ± 4.1 | – | –
COc1cc(C)ccc1Oc1cccc(Cl)c1CNc1nnc(N)[nH]1 [Compound 5m, N^3-(2-chloro-6-(2-methoxy-4-methylphenoxy)benzyl)-4H-1,2,4-triazole-3,5-diamine] | 84.7 ± 3.2 | – | –
Nc1n[nH]c(NCc2c(Cl)cccc2Oc2ccc(F)cc2)n1 [Compound M6] | 76.4 ± 2.2 | – | –
COc1cccc(NCc2nn[nH]n2)c1OCc1ccc(F)cc1Cl [Compound C5, N-((2H-tetrazol-5-yl)methyl)-2-((2-chloro-4-fluorobenzyl)oxy)-3-methoxyaniline] | – | -3.1 ± 7.8 | –

Molecule | inhibition at 10 µM [1, 6] [%] | inhibition at 10 µM ([1]; Chembridge analogues table) [%] | other results
Nc1nnc(NCc2c(Cl)cccc2Oc2ccc(SC(F)(F)F)cc2)[nH]1 [Compound 5i, N^3-(2-chloro-6-(4-((trifluoromethyl)thio)phenoxy)benzyl)-4H-1,2,4-triazole-3,5-diamine] | – | – | solubility (reason why % inhibition was not determined) [2]: Not Determined (Insoluble)
Fc1ccc(COc2ccc(Cl)cc2CNc2nc[nH]n2)cc1 [Compound C2, N-(5-chloro-2-((4-fluorobenzyl)oxy)benzyl)-1H-1,2,4-triazol-3-amine] | – | 27.7 ± 9 | –
Nc1nnc(NCc2c(Cl)cccc2Oc2cc(C(F)(F)F)cc(C(F)(F)F)c2)[nH]1 [Compound 5h, N^3-(2-(3,5-bis(trifluoromethyl)phenoxy)-6-chlorobenzyl)-4H-1,2,4-triazole-3,5-diamine] | 44.9 ± 4.6 | – | –
Nc1n[nH]c(NCc2ccccc2Oc2cccc3ccccc23)n1 [Compound M9] | 78.1 ± 2.6 | – | –
Fc1ccccc1COc1ccc(Cl)cc1CNc1nc[nH]n1 [Compound C3, N-(5-chloro-2-((2-fluorobenzyl)oxy)benzyl)-1H-1,2,4-triazol-3-amine] | – | 30.6 ± 6.4 | –
Clc1ccc(CNc2nc[nH]n2)c(Cl)c1 [Compound C4, N-(2,4-dichlorobenzyl)-1H-1,2,4-triazol-3-amine] | – | 2.2 ± 6.9 | –
CCOc1cc(Cl)cc(CNc2nc[nH]n2)c1 [Compound C10, N-(3-chloro-5-ethoxybenzyl)-1H-1,2,4-triazol-3-amine] | – | -3 ± 12.7 | –
Cc1ccc(Oc2cccc(Cl)c2CNc2nnc(N)[nH]2)cc1 [Compound 5b, N^3-(2-chloro-6-(p-tolyloxy)benzyl)-4H-1,2,4-triazole-3,5-diamine] | 59.3 ± 6.1 | – | –
COc1cc(Oc2cccc(Cl)c2CNc2nc(N)n[nH]2)cc(OC)c1OC [Compound M7] | 67.6 ± 6.2 | – | –
CCOc1cc(C)ccc1Oc1cccc(Cl)c1CNc1nc(N)n[nH]1 [Compound M4] | 77.7 ± 2.9 | – | –
CC(C)(C)c1ccc(Oc2cccc(Cl)c2CNc2nnc(N)[nH]2)cc1 [Compound 5f, N^3-(2-(4-(tert-butyl)phenoxy)-6-chlorobenzyl)-4H-1,2,4-triazole-3,5-diamine] | 58.2 ± 8.8 | – | –
Clc1cccc(Cl)c1CNc1nc[nH]n1 [Compound C9, N-(2,6-dichlorobenzyl)-1H-1,2,4-triazol-3-amine] | – | 30.9 ± 7.7 | –
Verlindamycin tetrahydrochloride [Compound 2d, reference compound] | – | – | left ventricular end diastolic pressure ([3]; 1 hour pre-treatment with 1.0 μM): reduced to near-normal levels; left ventricular developed pressure ([3]; pre-treatment before ischemia, after reperfusion): restored to nearly normal levels; infarct area as a percentage of the total left ventricular area [4]: significantly more effective than treatment with vehicle; association between LSD1 and CoREST [5]: Only compound C1 disrupted the association
Cc1ccccc1Oc1cccc(Cl)c1CNc1nnc(N)[nH]1 [Compound 5q] | 74.2 ± 5.2 | – | –
Nc1n[nH]c(NCc2c(Cl)cccc2Oc2cccc3ccccc23)n1 [Compound M1] | 95.3 ± 2.8 | – | –
Cc1ccc(COc2ccc(Cl)cc2CNc2nn[nH]n2)cc1 [Compound C8, N-(5-chloro-2-((4-methylbenzyl)oxy)benzyl)-2H-tetrazol-5-amine] | – | 6.9 ± 7.5 | –
COc1cccc(Cl)c1CNc1nc(N)n[nH]1 [Compound H1] | 73.1 ± 1.6 | – | –
Cc1cc(C)cc(Oc2cccc(Cl)c2CNc2nnc(N)[nH]2)c1 [Compound 5g, N^3-(2-chloro-6-(3,5-dimethylphenoxy)benzyl)-4H-1,2,4-triazole-3,5-diamine] | 67.9 ± 6.5 | – | –
COc1cc(OC)cc(Oc2cccc(Cl)c2CNc2nnc(N)[nH]2)c1 [Compound 5n, N^3-(2-chloro-6-(3,5-dimethoxyphenoxy)benzyl)-4H-1,2,4-triazole-3,5-diamine] | 63.3 ± 8.6 | – | –
COc1cccc(CNc2nnc[nH]2)c1OCc1ccccc1Cl [Compound C7, N-(2((2-chlorobenzyl)oxy)-3-methoxybenzyl)-4H-1,2,4-triazo1-3-amine] | – | 18.1 ± 8.2 | –
